The values below come from patent publication US6455554B1, “Oxopyridinyl pharmaceutical compositions and methods for use” (Targacept, Inc., priority 1999, dated 2002).

Values joined by “and” are separate entries in the source; they are usually repeats but may differ in a detail not shown here. Equal values may be shown once.

One assay relates to Rat brain synaptosomes. Kind of assay: Neurotransmitter release from brain synaptosomes. The format is cell-based. To be noted: 10 M of ligand, percentage of release with 10 M (S)-(-)-nicotine or 300 MTMA. As to the method: Neurotransmitter Release from Brain Synaotosomes
Neurotransmitter release was measured using techniques similar to those previously published (Bencherif M, et al.:. JPET 279: 1413-1421, 1996).
Rat brain synaptosomes were prepared as follows: Female Sprague Dawley rats (100-200 g) were killed by decapitation after anesthesia with 70% CO2. Brains are dissected, and hippocampus, striatum, and thalamus isolated, and homogenized in 0.32 M sucrose containing 5 mM HEPES pH 7.4 using a glass/glass homogenizer. The tissue was then centrifuged for 1000×g for 10 minutes and the pellet discarded. The supernatant was centrifuged at 12000×g for 20 minutes. The resultant pellet was re-suspended in perfusion buffer (128 mM NaCl, 1.2 mM KH2PO4, 2.4 mM KCl, 3.2 mM CaCl2, 1.2 mM MgSO4, 25 mM HEPES, 1 mM Ascorbic acid, 0.01 mM pargyline HCl and 10 mM glucose pH 7.4) and centrifuged for 15 minutes at 25000×g. The final pellet was resuspended in perfusion buffer and placed in a water bath (37° C.) for 10 minutes. Radiolabeled neurotransmitter is added (30 L ^3H DA, 20 L ^3H NE, 10 L ^3H glutamate) to achieve a final concentration of 100 nM, vortexed and placed in a water bath for additional 10 minutes. Tissue-loaded filters is placed onto 11-mm diameter Gelman A/E filters on an open-air support. After a 10-minute wash period, fractions are collected to establish the basal release and agonist applied in the perfusion stream. Further fractions were collected after agonist application to re-establish the baseline. The perfusate was collected directly into scintillation vials and released radioactivity was quantified using conventional liquid scintillation techniques. Release of neurotransmitter was determined in the presence of […] of various ligands and was expressed as a percentage of release obtained with a concentration of 10 M (S)-(−)-nicotine or 300 MTMA resulting in maximal effects.

The next assay deals with CNS nicotinic receptors (Rattus norvegicus, UniProt P09483+P12390). The experiment in a line: Determination of binding to relevant receptor sites. To be noted: inhibition constants calculated from IC50 values by the method of Cheng et al. How it is done: Determination of Binding to Relevant Receptor Sites
Chain of CNS nicotinic receptors (P09483 31-630): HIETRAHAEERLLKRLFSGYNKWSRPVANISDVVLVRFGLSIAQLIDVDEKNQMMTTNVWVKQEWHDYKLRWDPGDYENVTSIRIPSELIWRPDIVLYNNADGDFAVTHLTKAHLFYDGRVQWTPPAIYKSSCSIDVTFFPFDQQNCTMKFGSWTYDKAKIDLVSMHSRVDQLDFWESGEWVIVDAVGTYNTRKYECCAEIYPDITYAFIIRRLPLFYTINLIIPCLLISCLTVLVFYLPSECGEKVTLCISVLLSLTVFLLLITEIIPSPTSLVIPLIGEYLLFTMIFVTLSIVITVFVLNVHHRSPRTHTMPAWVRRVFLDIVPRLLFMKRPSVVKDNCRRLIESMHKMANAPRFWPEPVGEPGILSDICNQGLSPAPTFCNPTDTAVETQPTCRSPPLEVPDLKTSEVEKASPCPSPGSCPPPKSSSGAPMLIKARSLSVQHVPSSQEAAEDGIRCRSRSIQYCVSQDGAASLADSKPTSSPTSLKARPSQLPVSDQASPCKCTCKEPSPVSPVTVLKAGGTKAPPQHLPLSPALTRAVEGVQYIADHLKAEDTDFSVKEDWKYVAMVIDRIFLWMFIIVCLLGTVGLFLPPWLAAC
Chain of CNS nicotinic receptors (P12390 25-500): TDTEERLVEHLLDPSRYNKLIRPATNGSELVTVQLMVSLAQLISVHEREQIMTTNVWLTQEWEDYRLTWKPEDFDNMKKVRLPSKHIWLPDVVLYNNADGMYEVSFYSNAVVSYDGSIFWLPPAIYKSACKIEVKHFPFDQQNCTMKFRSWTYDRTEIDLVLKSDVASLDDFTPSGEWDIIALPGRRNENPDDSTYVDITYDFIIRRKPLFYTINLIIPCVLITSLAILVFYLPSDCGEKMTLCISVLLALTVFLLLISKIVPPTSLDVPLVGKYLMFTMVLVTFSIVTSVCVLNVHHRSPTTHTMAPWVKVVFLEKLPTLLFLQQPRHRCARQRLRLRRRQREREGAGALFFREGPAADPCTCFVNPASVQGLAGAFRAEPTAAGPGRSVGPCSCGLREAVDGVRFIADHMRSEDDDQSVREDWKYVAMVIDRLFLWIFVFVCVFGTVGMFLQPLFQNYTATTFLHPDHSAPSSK
Binding of the compounds to relevant receptor sites was determined in accordance with the techniques described in U.S. Pat. No. 5,597,919 to Dull et al. Inhibition constants (Ki values), reported in nM, were calculated from the IC50 values using the method of Cheng et al., Biochem, Pharmacol. 22:3099 (1973).

Assay [1] has as its system nicotinic cholinergic receptors that modulate dopamine release. The experiment in a line: Determination of dopamine release. The format is cell-based. As to the method:
Determination of Dopamine Release
Dopamine release was measured using the techniques described in U.S. Pat. No. 5,597,919 to Dull et al. Release is expressed as a percentage of release obtained with a concentration of (S)-(−)-nicotine resulting in maximal effects. Reported EC50 values are expressed in nM, and Emax values represent the amount released relative to (S)-(−)-nicotine on a percentage basis.

For assay [2], the system named is ganglionic-type nicotinic acetylcholine receptors. Kind of assay: Determination of interaction with ganglion receptors. The format is cell-based. To be noted: at a concentration of 100 uM; relative to (S)-(-)-nicotine. The source says:
By this is meant that a particular dose of compound resulting in prevention and/or treatment of a CNS disorder, is essentially ineffective in eliciting activation of certain ganglionic-type nicotinic receptors. […] As such, such compounds have poor ability to cause isotopic rubidium ion flux through nicotinic receptors in cell preparations derived from the adrenal gland. Generally, typical preferred compounds useful in carrying out the present invention activate isotopic rubidium ion flux by less than 10 percent, often by less than 5 percent, of that maximally provided by S(−) nicotine.
Determination of Interaction with Ganglion Receptors
The determination of the interaction of the compounds with ganglionic receptors was carried out in accordance with the techniques described in U.S. Pat. No. 5,597,919 to Dull et al. The maximal activation for individual compounds (Emax) was determined as a percentage of the maximal activation induced by (S)-(−)-nicotine. Reported Emax values represent the amount released relative to (S)-(−)-nicotine on a percentage basis.

A further assay has as its target nicotinic receptors. Kind of assay: Determination of rubidium ion release (rubidium ion flux assay). The format is cell-based. How it is done:
Determination of Rubidium Ion Release
Rubidium release was measured using the techniques described in Bencherif et al., JPET, 279: 1413-1421 (1996). Reported EC50 values are expressed in nM, and Emax values represent the amount of rubidium ion released relative to 300 uM tetramethylammonium ion, on a percentage basis.

Assay [3] addresses T1, muscle-type nicotinic acetylcholine receptors (Homo sapiens, UniProt P02708+P07510+Q07001).
T1 construct: cell preparations expressing muscle-type nicotinic acetylcholine receptors; endogenous in cells
The experiment in a line: Determination of interaction with muscle receptors. The format is cell-based. Also on record: Emax: dose or concentration left out as unconfirmed. To be noted: for Emax: read-out: Emax at muscle-type receptors. The text has this:
The compounds of the present invention, when employed in effective amounts in accordance with the method of the present invention, lack the ability to elicit activation of nicotinic receptors of human muscle to any significant degree. […] Generally, typical preferred compounds useful in carrying the present invention activate isotopic rubidium ion flux by less than 10 percent, often by less than 5 percent, of that maximally provided by S(−) nicotine.
Determination of Interaction with Muscle Receptors
The determination of the interaction of the compounds with muscle receptors was carried out in accordance with the techniques described in U.S. Pat. No. 5,597,919 to Dull et al. The maximal activation for individual compounds (Emax) was determined as a percentage of the maximal activation induced by (S)-(−)-nicotine. Reported Emax values represent the amount released relative to (S)-(−)-nicotine on a percentage basis.

[4] abbreviates: amount released relative to (S)-(-)-nicotine.
Setting [5] is: rubidium ion released relative to 300 uM tetramethylammonium ion.
[6] abbreviates: at a concentration of 100 uM, relative to (S)-(-)-nicotine.

T1 sequence (P02708 21-457): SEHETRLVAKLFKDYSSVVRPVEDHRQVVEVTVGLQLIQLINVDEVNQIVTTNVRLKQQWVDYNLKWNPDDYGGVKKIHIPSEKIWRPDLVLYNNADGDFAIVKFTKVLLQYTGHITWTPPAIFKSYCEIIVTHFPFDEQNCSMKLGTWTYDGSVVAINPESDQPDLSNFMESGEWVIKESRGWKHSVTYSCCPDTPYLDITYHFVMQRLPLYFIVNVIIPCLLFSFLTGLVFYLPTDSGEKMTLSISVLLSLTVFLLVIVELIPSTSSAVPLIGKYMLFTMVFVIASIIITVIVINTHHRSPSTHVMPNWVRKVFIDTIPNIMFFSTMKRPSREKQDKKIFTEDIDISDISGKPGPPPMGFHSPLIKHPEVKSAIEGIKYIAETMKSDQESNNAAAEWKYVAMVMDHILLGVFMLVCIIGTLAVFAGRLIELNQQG
T1 sequence (P11230 24-501 partner): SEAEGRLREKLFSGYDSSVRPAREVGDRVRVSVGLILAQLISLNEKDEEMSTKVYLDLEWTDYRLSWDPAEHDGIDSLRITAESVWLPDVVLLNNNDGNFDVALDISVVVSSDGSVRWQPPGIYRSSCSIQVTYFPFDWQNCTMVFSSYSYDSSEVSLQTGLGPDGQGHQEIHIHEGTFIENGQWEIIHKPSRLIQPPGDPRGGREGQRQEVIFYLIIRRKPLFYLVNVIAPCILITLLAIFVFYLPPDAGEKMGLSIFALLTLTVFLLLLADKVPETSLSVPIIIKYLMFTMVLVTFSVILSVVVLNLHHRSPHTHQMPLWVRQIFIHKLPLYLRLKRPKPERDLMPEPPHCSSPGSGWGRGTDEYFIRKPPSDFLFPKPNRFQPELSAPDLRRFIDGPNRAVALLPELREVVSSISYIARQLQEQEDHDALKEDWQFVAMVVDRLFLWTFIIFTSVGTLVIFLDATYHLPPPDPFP
T1 sequence (Q07001 22-517): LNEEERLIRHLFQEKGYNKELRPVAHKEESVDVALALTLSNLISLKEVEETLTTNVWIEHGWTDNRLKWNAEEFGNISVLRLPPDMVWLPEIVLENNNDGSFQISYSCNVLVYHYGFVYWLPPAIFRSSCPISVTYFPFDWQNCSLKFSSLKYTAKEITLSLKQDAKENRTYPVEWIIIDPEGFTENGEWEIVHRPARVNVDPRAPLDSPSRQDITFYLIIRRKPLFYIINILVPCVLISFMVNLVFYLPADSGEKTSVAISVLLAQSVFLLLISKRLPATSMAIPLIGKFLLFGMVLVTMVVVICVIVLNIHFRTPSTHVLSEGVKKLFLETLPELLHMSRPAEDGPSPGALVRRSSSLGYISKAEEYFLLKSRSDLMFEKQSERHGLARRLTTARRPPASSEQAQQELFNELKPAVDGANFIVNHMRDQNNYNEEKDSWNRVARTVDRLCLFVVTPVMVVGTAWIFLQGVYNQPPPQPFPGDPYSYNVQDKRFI
T1 sequence (P07510 23-517): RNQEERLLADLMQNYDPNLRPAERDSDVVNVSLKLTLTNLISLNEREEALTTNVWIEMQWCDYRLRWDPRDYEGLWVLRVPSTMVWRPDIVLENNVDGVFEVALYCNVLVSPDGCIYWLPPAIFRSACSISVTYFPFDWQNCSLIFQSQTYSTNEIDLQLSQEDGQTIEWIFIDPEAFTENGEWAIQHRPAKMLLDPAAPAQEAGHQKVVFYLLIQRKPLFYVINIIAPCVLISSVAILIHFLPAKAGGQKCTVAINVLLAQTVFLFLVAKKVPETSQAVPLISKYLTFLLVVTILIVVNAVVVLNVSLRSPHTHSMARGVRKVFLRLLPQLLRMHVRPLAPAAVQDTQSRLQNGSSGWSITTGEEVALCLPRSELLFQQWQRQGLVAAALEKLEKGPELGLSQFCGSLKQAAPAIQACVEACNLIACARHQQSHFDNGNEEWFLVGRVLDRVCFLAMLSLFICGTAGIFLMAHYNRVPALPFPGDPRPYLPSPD

With `CNCC/C=C/c1cnc(N)c([N+](=O)[O-])c1` [Sample No. 1, (3E)-N-methyl-4-[3-(5-nitro-6-aminopyridin)yl]-3-buten-1-amine], the “neurotransmitter release Emax” value with Rat brain synaptosomes came to 33%. Besides, the Ki on CNS nicotinic receptors was 0.003 µM. For the same compound, the “Emax for dopamine release” value in assay [1] (setting [4]) is 0%. For the same compound, in assay [2], the “Emax at ganglionic-type receptors” value is 11% and 16%. On nicotinic receptors, this compound had an EC50 of 26 µM. Further, the “Emax in the rubidium ion flux assay” value in the assay on nicotinic receptors (setting [5]) amounted to 22%. Further, the “Emax at muscle-type receptors” value in assay [3] (setting [6]) was 10% and 11%.
As to `CNCC/C=C/c1cncc(C(=O)NCc2ccccc2)c1` [Sample No. 2, (3E)-N-methyl-N-[3-(5-(N-benzylcarboxamido)pyridin)yl]-3-buten-1-amine], the midpoint of the response in assay [1], the EC50, lay at 100 µM. Moreover, in assay [1] (setting [4]), the Emax turned out to be 12%.
As to `CN[C@@H](C)C/C=C/c1cc(OC(C)C)c[n+]([O-])c1` [Sample No. 5], the maximal response (Emax) stood at 19% in the assay on Rat brain synaptosomes and 7% in assay [3]. The maximum response (Emax) at ganglionic-type receptors in assay [2] turned out to be 8%.
On to `CNCC/C=C/c1cncc(OCC(C)C)c1` [Sample No. 6, (3E)-N-methyl-4-(3-(5-isobutoxypyridin)yl)-3-buten-1-amine hemigalactarate], for which the EC50 in assay [1] is 15 µM; in the assay on nicotinic receptors it was 1 µM. The figures for the Emax (in assay [1] (setting [4]); with nicotinic receptors (setting [5]); in assay [3]) were 25%, 15% and 6%, respectively. In assay [2], the “Emax at ganglionic-type receptors” value stood at 13%.
As for `CNC(C)CC=Cc1ccc[n+]([O-])c1` (centres unmarked) [Sample No. 8, (4E)-N-methyl-5-(3-(1-oxopyridin)yl)-4-penten-2-amine], the Emax in the assay with Rat brain synaptosomes turned out to be 9%; in assay [3] it was 0%. The “Emax at ganglionic-type receptors” value in assay [2] turned out to be 8%.
Consider `CCSc1cncc(/C=C/CCNC)c1` [Sample No. 9, (3E)-N-methyl-4-(3-(5-ethylthiopyridin)yl)-3-buten-1-amine hemigalactarate], for which the values for the EC50 (in assay [1]; in the assay on nicotinic receptors) were 0.875 µM and 0.191 µM, respectively. The Emax was 39% in assay [1] (setting [4]), 40% in the assay with nicotinic receptors (setting [5]) and 7% in assay [3]. Further, the “Emax at ganglionic-type receptors” value in assay [2] is given as 22%.
As to `CNC(C)CC=Cc1cncc(C(F)(F)F)c1` (centres unmarked) [Sample No. 10, (4E)-N-methyl-5-(3-(5-trifluoromethylpyridin)yl)-4-penten-2-amine], the Emax with Rat brain synaptosomes came out at 50%; in the assay with nicotinic receptors (setting [5]) it was 0%; in assay [3], 0%. In addition, in assay [2], the “Emax at ganglionic-type receptors” value is listed as 0%. In the assay with nicotinic receptors, this compound came in with a concentration giving a half-maximal response (EC50) of 100 µM.
The compound `CC(N)CC=Cc1cncc(OC(C)C)c1` (centres unmarked) [Sample No. 12, (4E)-5-(3-(5-isopropoxypyridin)yl)-4-penten-2-amine hemigalactarate] registered an Emax in the assay with Rat brain synaptosomes of 32%. In addition, the maximal effect (Emax) at ganglionic-type receptors in assay [2] is given as 5%. The maximal effect (Emax) at 100 µM in assay [3] (setting [6]) stood at 13%.
On to `CNC(C)CC=Cc1cncc(O)c1` (centres unmarked) [Sample No. 13, (4E)-N-methyl-5-(3-(5-hydroxypyridin)yl)-4-penten-2-amine sesquioxalate], for which the Emax stood at 80% in the assay with Rat brain synaptosomes and 21% in assay [3]. The maximal response (Emax) at ganglionic-type receptors in assay [2] was 12%.
